This passage reports melting point results from a melting point compilation (Tetko et al.; mined from patent text by program, amines drawn as free bases though some values may be those of a salt).

The term melting point denotes the temperature, or range, at which the solid turns liquid.

Compound `CC1CSC2=C(O1)c1cc(-c3ccccc3)ccc1C(=O)C2=O` (centres undefined) gave a melting point of 190 to 192 °C.

In turn, `Cc1cn(-c2cc(NC(=O)c3ccc(Cl)c(C#Cc4ccc(NC5CC5)nn4)c3)cc(C(F)(F)F)c2)cn1` gave a melting point of 213 to 215 °C.

For the compound `O=C(O)CCCCCCCCn1nnc(-c2ccccc2)c1-c1ccccc1`, the melting point was 86 to 87 °C.

Compound `COc1cc(C(F)(F)F)cnc1O` showed a melting point of 115 to 117 °C.

The compound `CCN(CC)Cc1cccn1N(C)c1ccnc2cc(C(F)(F)F)ccc12` came in with a melting point of 64 to 66 °C.

The compound `N#Cc1cc(C2=Nc3ccc(-c4ccc(F)cc4F)cc3NC(=O)C2)ccn1` displayed a melting point of 250 to 253 °C.

With `CCN(c1ccc(Br)cc1)S(=O)(=O)C(F)(F)F`, the melting point fell in the range of 59 to 60 °C.

As to `CC1=Cc2ccc(Cl)cc2C(c2ccc([N+](=O)[O-])c(C)c2)=NN1C(=O)NC1CC1`, the melting point was 221 to 223 °C.

Compound `Clc1ncnc2c1c(I)cn2C1CCOC1` (centres undefined) registered a melting point of 184 to 186 °C.

On to `COc1ccc(N2CCSC2=N)c([N+](=O)[O-])c1`, for which the melting point worked out at 156 °C.

`O=C1Cc2cc(NC(=O)C(=O)N3CCC(Cc4ccccc4)CC3)ccc2N1`: the melting point lay within 115 to 118 °C.

In turn, `CCCc1nccn1Cc1ccc2c(c1)Cc1c(-c3ccsc3)n[nH]c1-2` showed a melting point of 113 to 117 °C.

Compound `COC(=O)Nc1cn2nc(OCc3cc(OC)c(OC)c(OC)c3)ccc2n1` gave a melting point of 213 to 215 °C.

`Cc1c(-c2ccc(O)cc2)n(Cc2ccc(C#CCN3CCCC3)cc2)c2ccc(O)cc12` returned a melting point of 174 to 176 °C.

`COc1cc(-c2ccccc2C(F)(F)F)c(Cl)cc1C(=O)N1Cc2ccc(C(=O)N(C)Cc3cccnc3)n2Cc2ccccc21` returned a melting point of 124 to 126 °C.

Regarding `CCCCCS(=O)(=O)NC(=O)/C=C/c1ccc(OCCCS(C)(=O)=O)cc1Oc1ncc(C(F)(F)F)cc1Cl`, the melting point was 194 to 196 °C.

In turn, `Oc1ccc(O)c2nccnc12` came in with a melting point of 234 to 236 °C.

`CSc1ncc2ccc(N)nc2n1` yielded a melting point of over 250 °C.

Regarding `N#Cc1c(Cl)[nH]c2ccccc12`, the melting point was in the range of 177 to 180 °C.

Compound `Cc1cccc2c1N(CC(=O)N1CC3CCC(CC3)C1)C(=O)C(NC(=O)Nc1cccc(C(=O)O)c1)N=C2c1ccccc1F` (centres undefined) registered a melting point of 197 to 204 °C.

As for `O=C(Cc1cc(O)no1)OC(c1ccccc1)c1ccccc1`, the melting point was in the range of 105 to 106 °C.

In turn, `CCOC(=O)CCc1cc(S(C)(=O)=O)cc(-c2nc(=O)c3ccc(Cl)cc3s2)n1` yielded a melting point of 240 °C.

For `COc1ccc(NC(=O)[C@H]2[C@H](c3ccccc3)C23CCCC3)c(OC)n1` (relative stereo), the melting point is 131 to 133 °C.

Consider `OCC(=C(c1ccc(F)cc1)c1ccc(F)cc1)n1cnnn1`, for which the melting point was in the range of 152 to 154 °C.

Regarding `O=C(O)c1ccccc1-c1nc2ccccc2o1`, the melting point was over 250 °C.

As to `CCCCCCCSc1nn2c(=O)c(OC)cnc2s1`, the melting point was 68 to 71 °C.

With `CS(=O)(=O)c1ccc(OCCCCl)cc1`, the melting point fell in the range of 84 to 86 °C.

`COC(=O)c1cnc(OCc2ccccn2)nc1NCc1ccc(OC)c(Cl)c1` displayed a melting point of 135 to 136 °C.

On to `O=CC=Cc1cnn(-c2c(Cl)cc(C(F)(F)F)cc2Cl)n1`, for which the melting point was in the range of 68 to 69 °C.

`O=c1[nH]c2ccc([C@H]3CC[C@H](N(CCCc4ccc(F)cc4)Cc4ccoc4)CC3)cc2o1` yielded a melting point of 225 to 227 °C.

`Cc1cccc(NC(=O)NCC(=O)N2C(Cc3ccccc3)SC[C@H]2C(=O)OC(C)(C)C)c1` (some centres undefined) had a melting point of 104 °C.

Compound `N#Cc1ccc(N2C(=O)N(CCCO)C3(CCOCC3)C2=O)cc1C(F)(F)F` came in with a melting point of 155 to 156 °C.

For the compound `CCOC(=O)c1csc(C2CCC2)n1`, the melting point lay within 48 to 50 °C.

`Cc1cccc(-c2nc3cccnn3c2-c2ccnc(N(C(=O)C3CC3)C(=O)C3CC3)c2)c1` displayed a melting point of 173 to 175 °C.

For the compound `Cc1sc(C2=NOC(c3cc(Cl)cc(Cl)c3)(C(F)(F)F)C2)cc1Br` (centres undefined), the melting point was in the range of 110 to 112 °C.

Consider `C1=Cn2cnnc2Cc2ccccc21`, for which the melting point fell in the range of 157 to 158 °C.

The compound `O=C(CSCc1ccc(F)cc1)NO` registered a melting point of 115 to 116 °C.

`CC(=O)N1CCN(NC(=O)c2cccs2)CC1` gave a melting point of 212 to 213 °C.

With `CCCCOC(=O)c1ccc(C(=O)c2ccccc2)cc1`, the melting point fell in the range of 50 to 60 °C.

Turning to `COC(=O)NNC(=O)c1n[nH]c2cc(OC)c(OC)cc12`, the melting point came to 235 °C.

The compound `Cc1c(-c2ccc(OC(F)F)c(OC3CC3)c2)[nH]c2cn[nH]c(=O)c12` yielded a melting point of 245 to 246 °C.

With `Oc1c(Cl)cc(Cn2c(S)nc3ccccc32)cc1Cl`, the melting point turned out to be 246 °C.

With `CCOC(=O)c1sc(N2CCNC2=O)nc1C(F)(F)F`, the melting point lay within 185 to 187 °C.

Consider `CCC1Cc2c(C)ccc(NNC(=O)OC)c2O1` (centres undefined), for which the melting point was in the range of 98 to 100 °C.

With `CCCOC(=O)C1=C(C)N(C)C(C)=C(C(=O)OCCC)C1c1ccc(Br)cc1`, the melting point was in the range of 97 to 99 °C.

In turn, `Fc1ccccc1C1=NCCN(C2=NCCO2)c2ccc(Cl)cc21` yielded a melting point of 162 to 164 °C.

Turning to `CC(=O)N(C)c1cc2c(nc(C)n2C)c(O)c1CCC(=O)c1ccccc1`, the melting point was in the range of 249 to 251 °C.

In turn, `CN1C(=O)N(c2cc(Cl)cc(Cl)c2)C(=O)[C@]12CNC[C@H]2c1ccc(C#N)cc1` had a melting point of 175 to 177 °C.

The compound `O=C(Cc1ccc(Cl)cc1)c1ccc(Cl)cc1Cl` yielded a melting point of 65 to 66 °C.

`O=C(O)Cc1cn(-c2ccccc2)nc1-c1ccccc1` yielded a melting point of 120 to 121 °C.

`CNC(=O)[C@H](Cc1ccc2ccccc2c1)NC(=O)C(CCOc1c(F)c(F)c(F)c(F)c1F)CC(=O)O` (some centres undefined): the melting point lay in the range of 68 to 69 °C.

In turn, `CCCCC(CC)n1c(CC)nc2c1C(=O)N(C)CN2c1ccc(Cl)cc1Cl` (centres undefined) showed a melting point of 94 to 95 °C.

Regarding `OCCC(O)OCn1cc(I)c2c(Cl)ncnc21` (centres undefined), the melting point fell in the range of 155 to 156 °C.

Consider `CCn1c(=O)cc(C2CCCCC2)c2cccnc21`, for which the melting point was 88 to 89 °C.

As to `COc1ccccc1N1CCN(CC(O)COc2ccccc2-c2ccnc(N)n2)CC1` (centres undefined), the melting point was in the range of 147 to 149 °C.

Turning to `O=C(OCc1ccccc1)C(=C1NCCCS1)[N+](=O)[O-]`, the melting point lay in the range of 78 to 79 °C.

In turn, `CC(=O)c1c(O)c(C(C)=O)c(C(C)=O)c2c1Oc1cc(O)ccc1N2` came in with a melting point of 208 °C.

As to `CCCCCCCCCCCCCCCCCC(=O)OC1CC(C)(C)N(OC(C)=O)C(C)(C)C1`, the melting point was in the range of 63 to 70 °C.

`CC(=O)Nc1ccc(C(=O)NC(=O)N2CCC(Oc3ccc(Cl)cc3)CC2)cc1` yielded a melting point of 79 °C.

Turning to `CC(CCn1c(=O)[nH]c2cc(F)ccc21)N1CCN(c2ccc(F)cc2)CC1` (centres undefined), the melting point was in the range of 188 to 193 °C.

As for `OC(CNCc1ccccc1)c1ccc(OCc2ccccc2)c(F)c1` (centres undefined), the melting point lay within 113 to 114 °C.

`COc1ccccc1Sc1ccccc1C(=O)O`: the melting point is 198 to 200 °C.

With `Nc1nc(Nc2ccc([N+](=O)[O-])cc2)sc1C(=O)c1ccccc1[N+](=O)[O-]`, the melting point was in the range of 266 to 268 °C.

The compound `O=C(C(=O)c1ccn(CC(F)(F)F)c1)c1cccc(Br)c1` returned a melting point of 105 to 106 °C.
